Experimental data from patent publication US7666437B2, “Intranasal vaccine for use against disease caused by enterotoxigenic Escherichia coli” (Universidad Nacional Autonoma de Mexico, priority 2005, dated 2010).
“And” between values parts separate entries of the source, which are not always exact repeats. Equal entries are not always repeated. Ends that are not written are not given here.

Assays:
IFN-gamma = tested on: IFN-gamma; set-up: species or system BALB/c mice; conditions: mouse, in vivo
T CD4+ lymphocytes = tested on: T CD4+ lymphocytes; set-up: species or system BALB/c mice; conditions: mouse, in vivo
strain H10407 of ETEC = tested on: strain H10407 of ETEC; set-up: species or system enterotoxigenic Escherichia coli; conditions: in vivo
T CD8+ lymphocytes = tested on: T CD8+ lymphocytes; set-up: species or system BALB/c mice; conditions: mouse, in vivo
IL-4 = tested on: IL-4; set-up: species or system BALB/c mice; conditions: mouse, in vivo
[1] = tested on: children's sera after natural infection; assay type: binding
Dynamic light scattering = assay type: physicochemical; conditions: 1 mg/ml in 10 mm PBS pH 7.4; physiological conditions of pH and temperature
Description: Dynamic light scattering: One milliliter of 1 mg/ml CLE diluted in 10 mm PBS, pH 7.4 was used to evaluate the dynamic light scattering at different temperatures of 5, 15, 25, 35 and 37° C. Hydrodynamic diameter of CLE was determined using the Zed ziser nano series (Mc Malvern, USA).

IL-10 = tested on: IL-10; set-up: species or system BALB/c mice; conditions: mouse, in vivo

Substance	response of INF-gamma (IFN-gamma)	increase of T CD4+ lymphocytes relative to the control (T CD4+ lymphocytes) [times]	positive coprocultures (excretion of ETEC) (strain H10407 of ETEC)	presence of diarrhea after the infection with ETEC (strain H10407 of ETEC)	response of T CD8+ lymphocytes (T CD8+ lymphocytes)	increase of IL-4 production compared to the control group (IL-4)	children's sera that recognized the epitope [1] [%]	increase of T CD4+ lymphocytes with regard to control group (T CD4+ lymphocytes)	response of T CD4+ lymphocytes (T CD4+ lymphocytes)	oligomeric structures formed (hydrodynamic diameter) (Dynamic light scattering)	increase of IL-10 compared to the control group (IL-10) [times]
CTB	considerable response	0.4	100% and 50%	inconsistency of feces up to the third day	very similar to the control group						
CLE: 20 amino acid common linear epitope of ETEC CFA/I fimbria, amino acids 33 to 52, with terminal cysteine in position 53 (YSPASKTFESYRVMTQVHTC; not fully specified; also: disulfide at Cys20, partner not given here; listed as Escherichia coli)			100% and 50%	change of consistency of the feces	slightly higher	about 2.6 times	100	about 2 fold	slightly higher	trimeric structures	0.8
